Data from patent publication US20100189660A1, “METHODS FOR THE DETECTION OF FATTY-ACYLATED PROTEIN” (Genentech, Inc., priority 2009, published 2010).

What was measured:
[1] = tested on: MDCK cells; assay: Hydroxylamine-sensitive assay of alkyne-labeled proteins (thioester vs amide linkage); type: cell-based, canine; details: blots treated with 5% hydroxylamine for 72 h
Procedure: These experiments validate the utility of C14 and C16 ω-alkynyl fatty-acyls as probes for protein myristoylation and palmitoylation, respectively.
(§1) Western blotting: Labeled protein lysates were resolved by SDS page using a 4-20% Tris-glycine gel (1 h 10 min at 180V). For immunoblotting of biotin-labeled proteins after electrophoresis, proteins were transferred onto a nitrocellulose membrane, which was blocked with PBS, 0.1% Tween-20 [PBST] and 5% non-fat dried milk for 2 h at RT or overnight at 4° C. The membrane was washed three times with PBST (5 minutes each), and incubated with streptavidin-horseradish peroxidase (Invitrogen Zymed #43-4323, 1:1250 in PBST) for 1 h at RT. The membrane was washed with PBST three times (10 min each) and developed using enhanced chemiluminescence according to manufacturer's recommendation (Amersham Biosciences). For the hydroxylamine-sensitive assay, following the transfer of proteins to nitrocellulose membranes, the membranes were incubated 65 to 72 h at RT with PBST and 5% NH2OH (Sigma-Aldrich). After the hydroxylamine treatment, the membranes were blocked with 5% non-fat dried milk for 2 h at RT or overnight at 4° C. and analyzed by streptavidin blot as described above.

[2] = tested on: PC3 prostate cancer cells; assay: Fluorescence microscopy of cellular fatty-acylated proteins; type: cell-based; details: for subcellular distribution of probe: PC3 cells, 100 μM, 3 h, confocal microscopy
Procedure: Cells were treated with DMSO or ω-alkynyl fatty-acyls (100 μM) as indicated for 3 h. The cells were then fixed, permeabilized and click reacted with rhodamine-azide and imaged by epifluorescence microscopy. […] All images were acquired the same way using 63× oil objective. The fluorescence along the z-axis is shown on top of each confocal section (Scale bar, 10 μm); (J, K, L) The distribution of lipid-modified proteins in different cellular states can be monitored by fluorescence imaging. […] The fluorescence along the z-axis is shown on the left-hand side of panel (K).
Cells were then fixed, permeabilized and click reacted with biotin-azide followed with treatment with streptavidin-conjugated Alexa488 and (optionally Hoechst stain for nuclei staining) and imaged using epifluorescence microscopy technique as described herein.
Fluorescence microscopy: Cells were seeded onto 12-well plates (4×10^5 cells/well) containing coverslips and incubated for 24 h before treatment. The growth medium was removed and cells were washed once with PBS before adding 1 mL of medium containing the co-alkynyl fatty acid at the indicated concentration. After 24-48 h incubation at 37° C./5% CO2, cells were washed three times with PBS to remove excess probe (ω-alkynyl fatty acid) and fixed with 4% paraformaldehyde (PFA) for 10 min at RT. Cells were then permeabilized with PBS/0.1% triton X-100 for 1-2 min at RT, washed extensively with the following reagents: 0.1 mM biotin-azide or rhodamine-azide, 1 mM Tris (2-carboxyethyl)phosphine hydrochloride (TCEP) dissolved in water, and 1 mM CuSO4 in PBS at RT for 1 h. The labeled cells were rinsed extensively with PBS and blocked in PBS/5% BSA for 45 min at RT. Cells were stained with streptavidin-conjugated AlexaFluor 488 (Invitrogen cat # S32354, 1:500) in PBS/5% BSA for 45 min at RT and nuclei were stained with Hoechst 33342 (MP # H21492; 1:10,000 in PBS) for 10 min at RT. For labeling with rhodamine-azide, cells were directly stained with Hoechst.

[3] = tested on: MDCK cells; assay: Metabolic incorporation of ω-alkynyl fatty-acyls onto cellular proteins, click with biotin-azide, streptavidin-HRP western blot; type: cell-based, canine; details: for degree of protein incorporation / time dependence of levels of labeled protein bands: 100 μM; for degree of protein incorporation: 24 h, western blot with streptavidin-HRP; for time dependence of levels of labeled protein bands: within 6 h; for dose dependence of metabolic incorporation: increasing concentration, at 4 h
Source text: Upon preparing the cellular proteome, the alkynyl group incorporated onto acylated proteins was chemoselectively ligated to azide-tagged biotin (for synthesis see Example 2) or fluorophore by a Cu(I)-catalyzed Huisgen alkyne-azide cycloaddition reaction (See, Wang, Q. et al. J. Am. Chem. Soc. 125, 3192-3193 (2003)) (FIG. 1C). The conjugated proteins were separated by gel electrophoresis and analyzed by Western blot using streptavidin-linked horseradish peroxidase (FIG. 2A). […] This was reasonable considering that the majority of protein lipid modifications in cells comprise myristoylation and palmitoylation.
Labeling and detection of lipoproteins in cell extracts: The ω-alkynl fatty-acyl compounds used for the examples were dissolved in DMSO to generate 50 mM stock solutions, and were stored at −80° C. Before cell treatment, the analogs were dissolved in DMEM serum-free media supplemented with 5% BSA (fatty acid-free—SIGMA EC232-936-2) and glutamax (for Raw and MDCK cell lines) at a final concentration of 100 μM. The fatty acid-media solutions were sonicated for 15 minutes at room temperature and then allowed to pre-complex for 15 min at RT.
Cells were seeded with complete media onto 6-well plates (8×10^5 cells/2 ml/well). They were incubated for 24 h before the treatment. Then the growth medium was removed, cells washed once with PBS and 2 mL of the ω-alkynyl fatty-acyls containing media was added to cells and incubated at 37° C. in a 5% CO2 humidified incubator. […] To obtain a final proteome concentration of 2 mg/ml (protein concentration determined by BCA kit) cell lysates were concentrated by centrifugation for 15 minutes at 14,000 rpm at 4° C. with the Centrifugal Ultrafiltration Devices (Pall centrifugal devices MWCO 3K, Nanosep device, cat # P/N ODOO3C34). Protein extracts were then subjected to the probe labeling reaction in 25 μL volume, for 1 h at RT (room temperature), at final concentrations of the following reagents (See, Speers, A. E. & Cravatt, B. F. Profiling enzyme activities in vivo using click chemistry methods. Chem Biol 11, 535-46 (2004); Hsu, T. L. et al. Alkynyl sugar analogs for the labeling and visualization of glycoconjugates in cells. Proc Natl Acad Sci USA 104, 2614-9 (2007)): 0.1 mM biotin-azide, 1 mM Tris (2-carboxyethyl)phosphine hydrochloride (TCEP, Sigma-Aldrich) dissolved in water, 0.2 mM Tris[(1-benzyl-1H-1,2,3-triazol-4-yl)methyl]amine (TBTA, Sigma-Aldrich) dissolved in DMSO/t-butanol (20%/80%) and 1 mM CuSO4 in PBS. The order of addition of the reagents to the protein extracts is important for the reaction and has to be followed as described above.
as §1

[4] = tested on: MDCK cells; assay: Specificity of incorporation: cycloheximide treatment and competition with myristic and palmitic acids; type: cell-based, canine; details: for probe specificity from competition experiments with myristic and palmitic acids: increasing concentration of myristic (MA) or palmitic acid (PA)
Procedure: MDCK cells were treated with C14 ω-alkynyl fatty acid (100 μM) in the presence or absence cycloheximide (100 μg/ml) for 5 h. Cellular proteome was prepared, reacted with biotin-azide, resolved by gel electrophoresis and detected by western blotting with streptavidin-HRP, as described using methods described herein. Asterisks denote bands labeled by treatment with probe but not in DMSO control; (B, C) Dose-dependent competition of C14 and C16 ω-alkynyl fatty acids with myristic (MA) and palmitic acids (PA), respectively. MDCK cells were treated with ω-alkynyl fatty acid probes as indicated in the presence of increasing concentration of myristic (MA) and palmitic acids (PA). Samples were processed as described herein.
The ω-alkynyl fatty-acyls were metabolically incorporated onto cellular proteins in a time- and dose-dependent manner.
Cells were seeded with complete media onto 6-well plates (8×10^5 cells/2 ml/well). They were incubated for 24 h before the treatment. Then the growth medium was removed, cells washed once with PBS and 2 mL of the ω-alkynyl fatty-acyls containing media was added to cells and incubated at 37° C. in a 5% CO2 humidified incubator. After 24 hours, the cells were washed three times with cold PBS and cell extracts were prepared by resuspending the cells in 400 μL of lysis buffer (1% Nonidet P-40/150 mM NaCl/protease and phosphatase inhibitor/100 mM sodium phosphate, pH 7.5). To obtain a final proteome concentration of 2 mg/ml (protein concentration determined by BCA kit) cell lysates were concentrated by centrifugation for 15 minutes at 14,000 rpm at 4° C. with the Centrifugal Ultrafiltration Devices (Pall centrifugal devices MWCO 3K, Nanosep device, cat # P/N ODOO3C34). […]
Western blotting: Labeled protein lysates were resolved by SDS page using a 4-20% Tris-glycine gel (1 h 10 min at 180V). […] After the hydroxylamine treatment, the membranes were blocked with 5% non-fat dried milk for 2 h at RT or overnight at 4° C. and analyzed by streptavidin blot as described above.

[5] = PC3 cells undergoing cell division, tubulin marker

Row | Structure (SMILES) | sensitivity of labeled proteins to hydroxylamine / type of linkage [1] | distribution of labeled proteins during cytokinesis [2, 5] | distribution of labeled proteins in metaphase cells [2, 5] | subcellular distribution of probe [2] | degree of protein incorporation [3] | time dependence of levels of labeled protein bands [3] | dose dependence of metabolic incorporation [3] | probe specificity from competition experiments with myristic and palmitic acids [4] | effect on protein labeling with C14 ([4]; C14 100 μM, cycloheximide 100 μg/ml, 5 h)
1 | C#CCCCCCCCC(=O)O [C11] | predominantly attach via thioester bonds | – | – | – | – | – | – | – | –
2 | C#CCCCCCCCCCCCCCC(=O)O [C16, 15-Hexadecyn-1-oic acid] | substantial sensitivity to hydroxylamine | concentrate at the cleavage furrow | at the plasma membrane and in dense structures around the spindle and throughout the body | distributed in a punctuate pattern outside the nucleus | highest degree of protein incorporation | time-dependent increase in the levels of labeled protein bands | dose-dependent metabolic incorporation | S-palmitoylation | –
3 | C[C@@H]1C[C@@H]([C@H](O)CC2CC(=O)NC(=O)C2)C(=O)[C@@H](C)C1 [cycloheximide, reference compound] | – | – | – | – | – | – | – | – | inhibits protein labeling with C14
4 | C#CCCCCCCCCCCCC(=O)O [C14, 13-Tetradecyn-1-oic acid] | resistance to hydroxylamine treatment | – | – | distributed in a punctuate pattern outside the nucleus | highest degree of protein incorporation | time-dependent increase in the levels of labeled protein bands | dose-dependent metabolic incorporation | specific probes for protein N-myristoylation | –
